≈ marks a conversion by molar mass, not a printed value.
Columns and labels:
[1] = Distribution coefficient, log D of the compound; assay type: physicochemical; conditions: octanol/water
[2] = Volume of distribution in monkey; assay type: ADME, organism-based, Macaca mulatta; conditions: rhesus monkey, in vivo; read-out: Vdss
[3] = Bioavailability in rat; assay type: ADME, organism-based; conditions: in vivo
[4] = Solubility in PBS buffer at ph 6.5; assay type: physicochemical
[5] = Bioavailability in monkey; assay type: ADME, organism-based, Macaca mulatta; conditions: rhesus monkey, in vivo
[6] = Volume of distribution in rat; assay type: ADME, organism-based; conditions: in vivo, read-out: Vdss
[7] = Dissociation constant, pKa of the compound; assay type: physicochemical
[8] = Half life in monkey; assay type: ADME, organism-based, Macaca mulatta; conditions: rhesus monkey, in vivo
[9] = Plasma clearance in rat; assay type: ADME, organism-based
[10] = Plasma clearance in monkey; assay type: ADME, organism-based, Macaca mulatta; conditions: rhesus monkey
[11] = Half life in rat; assay type: ADME, organism-based; conditions: in vivo
Homo sapiens = species: Homo sapiens; test: Inhibition of LPS-induced TNFalpha production in human whole blood; assay type: functional, organism-based
[12] = target: Mitogen-activated protein kinase 14 (Homo sapiens, UniProt Q16539); test: Inhibition of p38alpha
Sequence of Mitogen-activated protein kinase 14 (Q16539 whole entry): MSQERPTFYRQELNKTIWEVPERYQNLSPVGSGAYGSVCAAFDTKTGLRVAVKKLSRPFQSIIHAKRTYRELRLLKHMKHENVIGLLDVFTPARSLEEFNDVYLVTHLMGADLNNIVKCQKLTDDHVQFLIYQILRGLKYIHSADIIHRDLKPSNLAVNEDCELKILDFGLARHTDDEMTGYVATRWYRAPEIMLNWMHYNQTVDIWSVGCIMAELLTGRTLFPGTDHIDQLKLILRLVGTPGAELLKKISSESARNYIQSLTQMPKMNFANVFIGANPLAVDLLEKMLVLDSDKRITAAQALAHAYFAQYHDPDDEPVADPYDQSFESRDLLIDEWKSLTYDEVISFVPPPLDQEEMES

[13] = Hepatocyte extraction ratio in human; assay type: ADME, cell-based; conditions: hepatocytes
Monocyte = test: Inhibition of LPS-induced TNFalpha production in human monocytes; assay type: functional, cell-based
hERG (KCNH2) = hERG (KCNH2) (Homo sapiens, UniProt Q12809); test: Inhibition of hERG channel current in HEK293 cells at 3 uM; assay type: toxicity, cell-based; conditions: HEK293 cells that express hERG
Sequence of hERG (KCNH2) (Q12809 whole entry): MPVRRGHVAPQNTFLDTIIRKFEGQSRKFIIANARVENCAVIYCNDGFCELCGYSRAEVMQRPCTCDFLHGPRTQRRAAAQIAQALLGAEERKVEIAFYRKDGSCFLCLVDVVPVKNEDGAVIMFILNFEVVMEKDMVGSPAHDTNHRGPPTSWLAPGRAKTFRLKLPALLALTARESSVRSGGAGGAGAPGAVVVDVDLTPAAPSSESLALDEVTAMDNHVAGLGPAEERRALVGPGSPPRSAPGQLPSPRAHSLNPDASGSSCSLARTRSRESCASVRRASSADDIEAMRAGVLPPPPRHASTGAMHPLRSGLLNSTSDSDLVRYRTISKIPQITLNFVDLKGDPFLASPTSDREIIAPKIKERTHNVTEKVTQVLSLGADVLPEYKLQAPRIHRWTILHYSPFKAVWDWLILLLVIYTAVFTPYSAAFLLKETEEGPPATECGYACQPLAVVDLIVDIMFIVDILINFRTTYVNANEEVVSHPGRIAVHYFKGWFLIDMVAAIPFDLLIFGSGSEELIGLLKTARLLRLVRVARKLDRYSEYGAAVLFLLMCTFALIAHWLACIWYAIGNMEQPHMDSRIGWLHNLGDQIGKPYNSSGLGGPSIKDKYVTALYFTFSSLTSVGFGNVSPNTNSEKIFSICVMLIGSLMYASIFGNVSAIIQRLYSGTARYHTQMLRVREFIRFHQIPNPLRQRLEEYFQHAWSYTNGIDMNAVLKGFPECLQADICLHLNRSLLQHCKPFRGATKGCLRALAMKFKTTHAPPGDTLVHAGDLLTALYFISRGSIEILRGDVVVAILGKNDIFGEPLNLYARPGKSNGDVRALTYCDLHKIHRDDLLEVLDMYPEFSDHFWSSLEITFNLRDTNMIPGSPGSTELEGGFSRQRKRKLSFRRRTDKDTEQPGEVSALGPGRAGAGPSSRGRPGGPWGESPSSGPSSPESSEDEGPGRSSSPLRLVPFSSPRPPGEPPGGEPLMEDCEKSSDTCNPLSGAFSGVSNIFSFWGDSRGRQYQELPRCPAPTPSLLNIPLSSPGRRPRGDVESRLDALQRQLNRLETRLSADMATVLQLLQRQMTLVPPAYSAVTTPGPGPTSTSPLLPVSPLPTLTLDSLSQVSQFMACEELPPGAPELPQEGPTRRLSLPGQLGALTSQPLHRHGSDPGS

Rattus norvegicus = species: Rattus norvegicus; test: Inhibition of LPS-induced TNFalpha release in rat; assay type: functional
[14] = target: MAP kinase-activated protein kinase 2 (Homo sapiens, UniProt P49137); test: Inhibition of MAPKAP-K2
Sequence of MAP kinase-activated protein kinase 2 (P49137 whole entry): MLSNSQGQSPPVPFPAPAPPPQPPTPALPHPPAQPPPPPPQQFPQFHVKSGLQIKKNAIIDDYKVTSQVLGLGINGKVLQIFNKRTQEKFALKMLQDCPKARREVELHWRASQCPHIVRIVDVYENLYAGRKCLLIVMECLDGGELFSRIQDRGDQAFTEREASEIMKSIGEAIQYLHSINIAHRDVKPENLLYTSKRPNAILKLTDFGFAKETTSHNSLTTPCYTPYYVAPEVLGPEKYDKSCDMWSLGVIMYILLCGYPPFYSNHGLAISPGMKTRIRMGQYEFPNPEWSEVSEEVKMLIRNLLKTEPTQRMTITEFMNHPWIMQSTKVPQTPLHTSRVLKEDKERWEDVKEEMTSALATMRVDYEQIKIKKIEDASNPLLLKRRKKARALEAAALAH

[15] = target: T1, 3-phosphoinositide-dependent protein kinase 1 (Homo sapiens, UniProt O15530); test: Inhibition of PDK1
T1 sequence (O15530 whole entry): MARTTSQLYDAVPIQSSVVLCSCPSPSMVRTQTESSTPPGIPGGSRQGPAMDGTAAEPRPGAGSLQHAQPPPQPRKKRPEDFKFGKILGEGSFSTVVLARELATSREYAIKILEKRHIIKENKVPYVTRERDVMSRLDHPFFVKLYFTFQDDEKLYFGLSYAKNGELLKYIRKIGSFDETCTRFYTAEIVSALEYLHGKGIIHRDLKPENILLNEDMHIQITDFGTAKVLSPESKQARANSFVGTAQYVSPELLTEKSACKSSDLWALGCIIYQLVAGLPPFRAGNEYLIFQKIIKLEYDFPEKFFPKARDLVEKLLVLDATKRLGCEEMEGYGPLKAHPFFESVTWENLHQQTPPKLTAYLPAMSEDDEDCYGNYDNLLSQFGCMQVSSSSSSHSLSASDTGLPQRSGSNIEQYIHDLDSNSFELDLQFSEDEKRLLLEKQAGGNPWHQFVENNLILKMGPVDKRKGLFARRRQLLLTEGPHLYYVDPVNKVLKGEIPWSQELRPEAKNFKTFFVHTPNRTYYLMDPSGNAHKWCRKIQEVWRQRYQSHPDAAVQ

[16] = target: Ribosomal protein S6 kinase alpha-1 (Homo sapiens, UniProt Q15418); test: Inhibition of MAPKAP-K1a
[17] = target: RAC-alpha serine/threonine-protein kinase (Homo sapiens, UniProt P31749); test: Inhibition of PKBalpha
Sequence of RAC-alpha serine/threonine-protein kinase (P31749 whole entry): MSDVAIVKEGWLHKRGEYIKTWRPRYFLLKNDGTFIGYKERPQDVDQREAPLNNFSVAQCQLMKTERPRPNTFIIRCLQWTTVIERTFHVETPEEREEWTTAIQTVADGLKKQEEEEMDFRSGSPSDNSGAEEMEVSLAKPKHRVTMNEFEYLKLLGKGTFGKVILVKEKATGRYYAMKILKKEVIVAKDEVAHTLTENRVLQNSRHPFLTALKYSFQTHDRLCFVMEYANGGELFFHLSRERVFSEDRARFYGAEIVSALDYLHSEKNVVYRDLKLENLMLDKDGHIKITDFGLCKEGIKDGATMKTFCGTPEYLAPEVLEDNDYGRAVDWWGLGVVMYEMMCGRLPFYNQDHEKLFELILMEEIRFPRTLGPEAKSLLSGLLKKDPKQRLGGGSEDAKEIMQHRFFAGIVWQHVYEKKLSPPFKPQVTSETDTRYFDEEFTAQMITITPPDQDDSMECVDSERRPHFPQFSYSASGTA

[18] = target: Glycogen synthase kinase-3 beta (Homo sapiens, UniProt P49841); test: Inhibition of GSK3-beta
Sequence of Glycogen synthase kinase-3 beta (P49841 whole entry): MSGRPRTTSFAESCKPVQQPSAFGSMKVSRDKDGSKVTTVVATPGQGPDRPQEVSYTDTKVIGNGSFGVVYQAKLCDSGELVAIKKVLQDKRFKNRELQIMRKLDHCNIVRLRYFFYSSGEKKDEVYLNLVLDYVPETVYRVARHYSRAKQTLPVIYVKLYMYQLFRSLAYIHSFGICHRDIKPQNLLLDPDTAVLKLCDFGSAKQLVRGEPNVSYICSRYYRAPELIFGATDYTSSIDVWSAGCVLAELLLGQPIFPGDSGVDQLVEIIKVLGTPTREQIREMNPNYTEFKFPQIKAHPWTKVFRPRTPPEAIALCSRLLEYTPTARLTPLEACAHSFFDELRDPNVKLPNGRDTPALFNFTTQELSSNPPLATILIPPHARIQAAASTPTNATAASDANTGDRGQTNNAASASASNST

Casein kinase II = Casein kinase II (Homo sapiens, UniProt P19784+P67870+P68400); test: Inhibition of CK2; assay type: protein-complex assay
[19] = target: Mitogen-activated protein kinase 1 (Homo sapiens, UniProt P28482); test: Inhibition of ERK2
Sequence of Mitogen-activated protein kinase 1 (P28482 whole entry): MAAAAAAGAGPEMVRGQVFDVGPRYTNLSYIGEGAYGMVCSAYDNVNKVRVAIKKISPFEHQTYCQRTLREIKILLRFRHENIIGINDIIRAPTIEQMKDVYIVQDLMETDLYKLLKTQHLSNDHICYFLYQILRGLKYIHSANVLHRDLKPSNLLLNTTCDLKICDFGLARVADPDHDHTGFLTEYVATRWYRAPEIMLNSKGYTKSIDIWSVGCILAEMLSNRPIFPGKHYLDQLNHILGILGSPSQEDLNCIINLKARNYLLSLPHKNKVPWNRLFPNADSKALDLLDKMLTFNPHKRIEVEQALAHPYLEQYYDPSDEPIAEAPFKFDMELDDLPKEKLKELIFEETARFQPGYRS

[20] = Inhibition of phosphorylase kinase
[21] = target: T2, Serine/threonine-protein kinase Chk1 (Homo sapiens, UniProt O14757); test: Inhibition of CHK1
T2 sequence (O14757 whole entry): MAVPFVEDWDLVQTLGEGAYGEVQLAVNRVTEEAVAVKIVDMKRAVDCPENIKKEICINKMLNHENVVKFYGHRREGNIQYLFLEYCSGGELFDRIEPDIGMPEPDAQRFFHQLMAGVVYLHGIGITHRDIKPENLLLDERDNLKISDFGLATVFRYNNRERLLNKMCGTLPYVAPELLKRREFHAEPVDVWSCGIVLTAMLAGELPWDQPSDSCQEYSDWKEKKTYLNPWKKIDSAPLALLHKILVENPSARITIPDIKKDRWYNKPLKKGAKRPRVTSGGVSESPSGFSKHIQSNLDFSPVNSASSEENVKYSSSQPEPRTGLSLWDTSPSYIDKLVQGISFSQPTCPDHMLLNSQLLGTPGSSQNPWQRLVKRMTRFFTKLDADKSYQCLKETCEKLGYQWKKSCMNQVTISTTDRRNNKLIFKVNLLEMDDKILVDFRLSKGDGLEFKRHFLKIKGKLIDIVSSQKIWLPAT

[22] = target: Dual specificity tyrosine-phosphorylation-regulated kinase 1A (Homo sapiens, UniProt Q13627); test: Inhibition of DYRK1a
[23] = target: Rho-associated protein kinase 2 (Homo sapiens, UniProt O75116); test: Inhibition of ROCK2
[24] = Inhibition of PI3K
[25] = target: AMP-activated protein kinase, AMPK; test: Inhibition of AMPK; assay type: protein-complex assay
[26] = target: Ribosomal protein S6 kinase alpha-5 (Homo sapiens, UniProt O75582); test: Inhibition of MSK1
Sequence of Ribosomal protein S6 kinase alpha-5 (O75582 whole entry): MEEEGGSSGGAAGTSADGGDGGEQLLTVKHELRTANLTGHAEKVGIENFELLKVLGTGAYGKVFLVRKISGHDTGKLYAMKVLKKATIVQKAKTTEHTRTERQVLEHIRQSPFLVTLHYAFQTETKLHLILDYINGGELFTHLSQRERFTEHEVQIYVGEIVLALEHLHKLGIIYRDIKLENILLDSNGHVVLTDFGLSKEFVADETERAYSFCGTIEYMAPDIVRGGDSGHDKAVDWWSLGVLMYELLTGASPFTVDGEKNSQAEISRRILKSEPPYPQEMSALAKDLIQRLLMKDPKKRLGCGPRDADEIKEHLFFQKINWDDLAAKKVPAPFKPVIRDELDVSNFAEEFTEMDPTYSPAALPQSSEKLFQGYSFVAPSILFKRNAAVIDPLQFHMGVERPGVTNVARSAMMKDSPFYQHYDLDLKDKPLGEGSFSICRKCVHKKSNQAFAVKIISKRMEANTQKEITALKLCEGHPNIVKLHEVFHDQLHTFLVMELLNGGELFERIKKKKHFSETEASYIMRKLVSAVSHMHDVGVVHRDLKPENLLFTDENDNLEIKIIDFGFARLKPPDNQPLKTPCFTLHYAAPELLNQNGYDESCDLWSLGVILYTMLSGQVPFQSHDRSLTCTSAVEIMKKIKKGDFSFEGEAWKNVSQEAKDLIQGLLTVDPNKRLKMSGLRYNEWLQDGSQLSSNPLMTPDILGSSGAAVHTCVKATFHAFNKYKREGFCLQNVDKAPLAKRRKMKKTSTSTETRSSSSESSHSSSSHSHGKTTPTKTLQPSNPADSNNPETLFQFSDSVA

[27] = Inhibition of PKC
[28] = target: T3, Serine/threonine-protein kinase Sgk1 (Homo sapiens, UniProt O00141); test: Inhibition of SGK
T3 sequence (O00141 whole entry): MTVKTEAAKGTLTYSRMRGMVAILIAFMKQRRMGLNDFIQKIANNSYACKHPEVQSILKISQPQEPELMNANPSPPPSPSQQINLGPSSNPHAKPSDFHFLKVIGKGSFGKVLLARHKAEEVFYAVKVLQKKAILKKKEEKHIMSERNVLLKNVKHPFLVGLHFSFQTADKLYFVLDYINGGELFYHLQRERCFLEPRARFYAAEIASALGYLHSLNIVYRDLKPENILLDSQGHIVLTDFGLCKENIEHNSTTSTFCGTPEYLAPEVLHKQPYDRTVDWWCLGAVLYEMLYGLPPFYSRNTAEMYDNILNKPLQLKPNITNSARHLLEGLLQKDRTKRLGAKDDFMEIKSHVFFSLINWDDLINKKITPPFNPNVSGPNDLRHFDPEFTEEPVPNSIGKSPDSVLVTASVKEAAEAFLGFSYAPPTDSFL

[29] = target: Cyclin-dependent kinase 2 (Homo sapiens, UniProt P24941); test: Inhibition of CDK2
[30] = target: Dual specificity mitogen-activated protein kinase kinase 1 (Homo sapiens, UniProt Q02750); test: Inhibition of MKK1
Sequence of Dual specificity mitogen-activated protein kinase kinase 1 (Q02750 whole entry): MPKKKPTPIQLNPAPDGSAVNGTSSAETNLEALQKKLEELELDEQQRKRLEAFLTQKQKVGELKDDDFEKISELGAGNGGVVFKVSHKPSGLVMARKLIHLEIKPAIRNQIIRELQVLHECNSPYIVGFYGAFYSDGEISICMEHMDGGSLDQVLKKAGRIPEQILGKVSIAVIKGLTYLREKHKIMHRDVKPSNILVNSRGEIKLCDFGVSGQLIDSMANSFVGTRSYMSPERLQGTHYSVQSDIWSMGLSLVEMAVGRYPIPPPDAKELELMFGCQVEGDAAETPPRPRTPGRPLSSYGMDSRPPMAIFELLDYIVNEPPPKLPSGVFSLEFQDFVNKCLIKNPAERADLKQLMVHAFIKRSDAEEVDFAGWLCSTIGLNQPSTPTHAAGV

[31] = target: Protein kinase C alpha type (Homo sapiens, UniProt P17252); test: Inhibition of PKCalpha
[32] = target: T4, MAP kinase-activated protein kinase 5 (Homo sapiens, UniProt Q8IW41); test: Inhibition of PRAK
T4 sequence (Q8IW41 whole entry): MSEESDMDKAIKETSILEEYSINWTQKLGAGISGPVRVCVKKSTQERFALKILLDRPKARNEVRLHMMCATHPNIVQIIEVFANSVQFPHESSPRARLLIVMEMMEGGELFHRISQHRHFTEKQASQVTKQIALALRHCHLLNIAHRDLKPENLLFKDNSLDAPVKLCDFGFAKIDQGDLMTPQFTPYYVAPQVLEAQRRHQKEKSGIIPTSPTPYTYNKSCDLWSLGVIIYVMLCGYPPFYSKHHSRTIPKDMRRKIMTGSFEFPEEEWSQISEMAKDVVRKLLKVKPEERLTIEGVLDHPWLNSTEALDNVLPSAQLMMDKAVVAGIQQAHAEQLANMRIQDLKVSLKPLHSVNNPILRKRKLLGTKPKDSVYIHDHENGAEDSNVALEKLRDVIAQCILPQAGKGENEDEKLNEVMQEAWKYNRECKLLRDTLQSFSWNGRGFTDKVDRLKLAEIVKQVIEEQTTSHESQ

[33] = target: c-Jun N-terminal kinase, JNK (Homo sapiens, UniProt P45983+P53779+P45984); test: Inhibition of JNK; assay type: protein assay
[34] = target: Tyrosine-protein kinase CSK (Homo sapiens, UniProt P41240); test: Inhibition of CSK
Sequence of Tyrosine-protein kinase CSK (P41240 whole entry): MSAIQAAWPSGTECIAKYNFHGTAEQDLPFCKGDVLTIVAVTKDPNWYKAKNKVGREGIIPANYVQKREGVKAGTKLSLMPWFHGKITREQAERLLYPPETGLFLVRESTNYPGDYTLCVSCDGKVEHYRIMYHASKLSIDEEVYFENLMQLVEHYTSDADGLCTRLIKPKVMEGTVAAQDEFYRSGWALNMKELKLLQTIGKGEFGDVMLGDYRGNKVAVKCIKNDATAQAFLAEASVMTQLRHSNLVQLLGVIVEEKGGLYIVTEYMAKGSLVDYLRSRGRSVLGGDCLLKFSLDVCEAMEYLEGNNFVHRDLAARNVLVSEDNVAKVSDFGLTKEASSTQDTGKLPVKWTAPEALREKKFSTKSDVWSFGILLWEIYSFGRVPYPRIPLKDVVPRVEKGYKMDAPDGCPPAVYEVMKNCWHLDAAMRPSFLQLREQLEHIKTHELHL

[35] = target: Ribosomal protein S6 kinase (P70S6K) (Homo sapiens, UniProt P23443+Q9UBS0); test: Inhibition of P70S6K; assay type: protein-complex assay
[36] = Permeability from basolateral to apical side of Caco-2 cell membrane; assay type: ADME, cell-based; conditions: human
[37] = Permeability from apical to basolateral side of Caco-2 cell membrane; assay type: ADME, cell-based; conditions: human

SMILES: CC(C)c1nnc2ccc(-c3ocnc3-c3ccc(F)cc3)cn12
- logD [1]: 2.18
- Vd [2]: 1.8 L/kg
- bioavailability [3]: 85%
- solubility [4]: 29.6 µg/mL (≈ 91.8 µM)
- bioavailability [5]: 75%
- Vd [6]: 0.8 L/kg
- pKa [7]: 2.86
- half-life [8]: 1.3 h
- clearance [9]: 12 mL/min/kg
- clearance [10]: 16 mL/min/kg
- half-life [11]: 0.7 h

SMILES: CCOc1ccccc1-c1nnc2ccc(-c3ocnc3-c3ccc(F)cc3)cn12
- IC50 (Homo sapiens): 697 nM
- IC50 [12]: 0.4 nM
- hepatic extraction ratio [13]: > 0.5
- IC50 (Monocyte): 10 nM

SMILES: CC1(c2nnc3ccc(-c4ocnc4-c4ccc(F)cc4F)cn23)CC1
- IC50 (Homo sapiens): 245 nM
- IC50 [12]: 0.7 nM
- hepatic extraction ratio [13]: > 0.5
- IC50 (Monocyte): 30 nM

SMILES: Fc1ccc(-c2ncoc2-c2ccc3nnc(C4CC4)n3c2)cc1
- IC50 (Homo sapiens): 4650 nM
- IC50 [12]: 10.9 nM
- hepatic extraction ratio [13]: > 0.5
- IC50 (Monocyte): 186 nM

SMILES: CCNc1nnc2ccc(-c3ocnc3-c3ccccc3)cn12
- IC50 (Homo sapiens): 1710 nM
- IC50 [12]: 5.4 nM
- hepatic extraction ratio [13]: > 0.5
- IC50 (Monocyte): 40 nM

SMILES: CC(C)c1nnc2ccc(-c3ocnc3-c3cccc(Cl)c3)cn12
- Vd [2]: 1 L/kg
- bioavailability [3]: 37%
- IC50 (Homo sapiens): 550 nM
- solubility [4]: 5.2 µg/mL (≈ 15.3 µM)
- IC50 [12]: 13.5 nM
- bioavailability [5]: 19%
- Vd [6]: 1 L/kg
- inhibition at 3 µM (hERG (KCNH2)): 14%
- half-life [8]: 1.1 h
- clearance [9]: 17 mL/min/kg
- IC50 (Monocyte): 52.3 nM
- clearance [10]: 15 mL/min/kg
- half-life [11]: 1.6 h
- ED50 (Rattus norvegicus): 2.4 mg/kg

SMILES: CC(C)c1nnc2ccc(-c3ocnc3-c3cc(F)c(F)cc3F)cn12
- IC50 [14]: > 10000 nM
- IC50 [15]: > 10000 nM
- IC50 [16]: > 10000 nM
- IC50 [17]: > 10000 nM
- IC50 [18]: > 10000 nM
- IC50 (Homo sapiens): 263 nM
- IC50 (Casein kinase II): > 10000 nM
- IC50 [19]: > 10000 nM
- IC50 [12]: 3.2 nM
- IC50 [20]: > 10000 nM
- IC50 [21]: > 10000 nM
- IC50 [22]: > 10000 nM
- IC50 [23]: > 10000 nM
- IC50 [24]: > 10000 nM
- IC50 [25]: > 10000 nM
- IC50 [26]: > 10000 nM
- IC50 [27]: > 10000 nM
- IC50 [28]: > 10000 nM
- IC50 [29]: > 10000 nM
- IC50 [30]: > 10000 nM
- IC50 [31]: > 10000 nM
- IC50 [32]: > 10000 nM
- IC50 [33]: > 10000 nM
- IC50 [34]: > 10000 nM
- IC50 (Monocyte): 19.7 nM
- IC50 [35]: > 10000 nM

SMILES: CC(C)c1nnc2ccc(-c3[nH]cnc3-c3cc(F)ccc3F)cn12
- IC50 (Homo sapiens): 297 nM
- IC50 [12]: 6.2 nM
- Papp B→A [36]: 32 ×10⁻⁶ cm/s
- Papp A→B [37]: 1 ×10⁻⁶ cm/s
- IC50 (Monocyte): 24.5 nM
